pIC50: −log10 of the molar value.
Key:
human CD38 = biological target: T1, human CD38 (Homo sapiens, UniProt P28907); experiment: NAD+ cyclase activity assay with human recombinant CD38 protein (ε-NAD fluorescence); assay type: biochemical; settings: 1.9 nM human CD38, substrate ε-NAD, 30 min preincubation, fluorescence 300/410 nm
T1 construct: purchased Bio-Techne GmbH AVI2404
T1 sequence (P28907 1-300): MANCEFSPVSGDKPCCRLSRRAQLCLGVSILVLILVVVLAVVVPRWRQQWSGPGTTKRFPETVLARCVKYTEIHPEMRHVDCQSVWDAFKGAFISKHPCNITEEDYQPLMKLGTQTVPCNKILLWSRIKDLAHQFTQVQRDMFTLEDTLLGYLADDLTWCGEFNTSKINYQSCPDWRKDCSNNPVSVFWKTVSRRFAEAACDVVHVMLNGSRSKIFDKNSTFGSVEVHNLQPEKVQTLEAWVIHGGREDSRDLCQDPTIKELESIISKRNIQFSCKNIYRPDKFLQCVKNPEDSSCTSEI
In short: (§1)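 Twelve-point threefold compound dilutions were given 30 min at room temperature with 0.6 nM mouse or 1.9 nM human CD38 before […] ε-NAD was added (pH 7.5 HEPES/sucrose/Tween buffer). The rate came from the linear-phase slope of ex 300/em 410 nm fluorescence against vehicle and no-CD38 controls.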

mouse CD38 = biological target: T2, mouse CD38 (Mus musculus, UniProt P56528); experiment: NAD+ cyclase activity assay with mouse recombinant CD38 protein (ε-NAD fluorescence); assay type: biochemical; settings: 0.6 nM mouse CD38, substrate ε-NAD, 30 min preincubation, fluorescence 300/410 nm
T2 construct: purchased Bio-Techne GmbH 4947-AC
T2 sequence (P56528 1-304): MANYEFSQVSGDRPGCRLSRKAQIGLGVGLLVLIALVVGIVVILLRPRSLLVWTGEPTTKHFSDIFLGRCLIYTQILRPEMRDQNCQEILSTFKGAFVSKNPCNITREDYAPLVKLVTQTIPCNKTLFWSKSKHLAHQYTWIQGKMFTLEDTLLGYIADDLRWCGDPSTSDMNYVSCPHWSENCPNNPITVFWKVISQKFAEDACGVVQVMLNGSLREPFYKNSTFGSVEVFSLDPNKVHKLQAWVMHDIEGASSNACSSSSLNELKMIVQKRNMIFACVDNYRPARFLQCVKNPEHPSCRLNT
In short: as §1

| pIC50 (human CD38) | pIC50 (mouse CD38) | SMILES |
| --- | --- | --- |
| 7.00 to 7.52 | 8.00 to 9.00 | O=C(N[C@H]1CC[C@@H](OCC(F)(F)F)CC1)c1cc(Cl)c2c(c1)-c1cncn1CCO2 [Compound 158A, 8-Chloro-N-((1s,4s)-4-(2,2,2-trifluoroethoxy)cyclohexyl)-5,6-dihydrobenzo[f]imidazo[1,5-d][1,4]oxazepine-10-carboxamide] |
| > 7.52 | > 9.00 | O=C(NC1CC2(CCC2)C1)c1cc(F)c2c(c1)-c1cncn1CCO2 [Compound 159A, 8-Fluoro-N-(spiro[3.3]heptan-2-yl)-5,6-dihydrobenzo[f]imidazo[1,5-d][1,4]oxazepine-10-carboxamide] |
| > 7.52 | 8.00 to 9.00 | CC1(NC(=O)c2cc(Cl)c3c(c2)-c2cncn2CCO3)CCCCC1 [Compound 163A, 8-Chloro-N-(1-methylcyclohexyl)-5,6-dihydrobenzo[f]imidazo[1,5-d][1,4]oxazepine-10-carboxamide] |
| > 7.52 | 8.00 to 9.00 | O=C(NC1CCC(CC(F)(F)F)CC1)c1cc(F)c2c(c1)-c1cncn1CCO2 (stereo not drawn) [Compound 164A, 8-Fluoro-N-(4-(2,2,2-trifluoroethyl)cyclohexyl)-5,6-dihydrobenzo[f]imidazo[1,5-d][1,4]oxazepine-10-carboxamide] |
| > 7.52 | 8.00 to 9.00 | O=C(NC1CCC(CC(F)(F)F)CC1)c1cc(Cl)c2c(c1)-c1cncn1CCO2 (stereo not drawn) [Compound 165A, 8-Chloro-N-(4-(2,2,2-trifluoroethyl)cyclohexyl)-5,6-dihydrobenzo[f]imidazo[1,5-d][1,4]oxazepine-10-carboxamide] |

The next lines start with the compound.

| SMILES | pIC50 (human CD38) | pIC50 (mouse CD38) |
| --- | --- | --- |
| O=C(N[C@H]1CC[C@H](OCC(F)(F)F)CC1)c1cc(Cl)c2c(c1)-c1cncn1CCO2 [Compound 157A, 8-Chloro-N-((1r,4r)-4-(2,2,2-trifluoroethoxy)cyclohexyl)-5,6-dihydrobenzo[f]imidazo[1,5-d][1,4]oxazepine-10-carboxamide] | > 7.52 | > 9.00 |
| O=C(NC1CC2(COC2)C1)c1cc(F)c2c(c1)-c1cncn1CCO2 [Compound 160A, 8-Fluoro-N-(2-oxaspiro[3.3]heptan-6-yl)-5,6-dihydrobenzo[f]imidazo[1,5-d][1,4]oxazepine-10-carboxamide] | 7.00 to 7.52 | 8.00 to 9.00 |
| O=C(NC1CCCC(C(F)(F)F)C1)c1cc(F)c2c(c1)-c1cncn1CCO2 (stereo not drawn) [Compound 161A, 8-Fluoro-N-(3-(trifluoromethyl)cyclohexyl)-5,6-dihydrobenzo[f]imidazo[1,5-d][1,4]oxazepine-10-carboxamide] | > 7.52 | 8.00 to 9.00 |
| CC1(NC(=O)c2cc(F)c3c(c2)-c2cncn2CCO3)CCCCC1 [Compound 162A, 8-Fluoro-N-(1-methylcyclohexyl)-5,6-dihydrobenzo[f]imidazo[1,5-d][1,4]oxazepine-10-carboxamide] | 7.00 to 7.52 | 7.00 to 8.00 |
| O=C(N[C@H]1CC[C@H](OC2CC(F)(F)C2)CC1)c1cc(F)c2c(c1)-c1cncn1CCO2 [Compound 166A, N-((1r,4r)-4-(3,3-Difluorocyclobutoxy)cyclohexyl)-8-fluoro-5,6-dihydrobenzo[f]imidazo[1,5-d][1,4]oxazepine-10-carboxamide] | > 7.52 | 8.00 to 9.00 |
| O=C(N[C@H]1CC[C@@H](OC2CC(F)(F)C2)CC1)c1cc(F)c2c(c1)-c1cncn1CCO2 [Compound 167A, N-((1s,4s)-4-(3,3-Difluorocyclobutoxy)cyclohexyl)-8-fluoro-5,6-dihydrobenzo[f]imidazo[1,5-d][1,4]oxazepine-10-carboxamide] | 6.00 to 7.00 | 7.00 to 8.00 |
| CC(C)(CO[C@H]1CC[C@@H](NC(=O)c2cc(F)c3c(c2)-c2cncn2CCO3)CC1)C(F)(F)F [Compound 168A, 8-Fluoro-N-((1s,4s)-4-(3,3,3-trifluoro-2,2-dimethylpropoxy)cyclohexyl)-5,6-dihydrobenzo[f]imidazo[1,5-d][1,4]oxazepine-10-carboxamide] | 6.00 to 7.00 | < 7.00 |

Source: patent publication US20260138990A1, “TRICYCLIC FUSED IMIDAZOLE COMPOUNDS AS CD38 MODULATORS AND USES THEREOF” (AEOVIAN PHARMACEUTICALS, INC., priority 2023, published 2026)
